Measurements reported in PMC12396409, “Screening and hit evaluation of a microbial metabolite library against the pathogenic Plasmodium falciparum and Toxoplasma gondii parasites” (International Journal for Parasitology: Drugs and Drug …, 2025).
Read-outs that look alike come from different tables or passages of the source.

Experiments:
[1] = system: T. gondii RH strain (RH-Tub-eYFP) tachyzoites; test: microbe, parasite or virus in culture; type: cell-based, Toxoplasma gondii; details: 72 h, 72 h; for percent parasite growth at 2 µg/mL: Toxoplasma gondii
[2] = system: P. falciparum 3D7 parasites; test: P. falciparum growth inhibition assay, 2-cycle (120 h treatment), delayed-death screen and dose-response; type: cell-based, Plasmodium falciparum; details: for activity at 2 µg/mL: Plasmodium falciparum
[3] = system: P. falciparum 3D7 parasites; test: P. falciparum growth inhibition assay, 1-cycle (72 h treatment), SYBR DNA staining (library screen at 2 μg/mL and dose-response); type: cell-based, Plasmodium falciparum; details: for activity at 2 µg/mL: Plasmodium falciparum
[4] = T. gondii RH, library screen at 2 μg/mL, % growth, replicate 1
[5] = T. gondii RH, library screen at 2 μg/mL, % growth, replicate 2
[6] = P. falciparum 3D7, 120 h, library screen at 2 μg/mL, % growth, replicate 1
[7] = P. falciparum 3D7, 120 h, library screen at 2 μg/mL, % growth, replicate 2
[8] = P. falciparum 3D7, 72 h, library screen at 2 μg/mL, % growth, replicate 1
[9] = P. falciparum 3D7, 72 h, library screen at 2 μg/mL, % growth, replicate 2

Question: What does the source list for `C[C@H]1CCC/C=C/[C@@H]2C[C@H](O)C[C@H]2[C@H](O)/C=C/C(=O)O1` [Brefeldin A]?
Answer: percent parasite growth at 2 µg/mL ([1]; T. gondii, screen at 2 μg/mL, replicate 1, read-out: Tg_72h_%Growth_Rep1): -1.55%; percent parasite growth at 2 µg/mL ([1]; T. gondii, screen at 2 μg/mL, replicate 2, read-out: Tg_72h_%Growth_Rep2): 0.61%; activity at 2 µg/mL ([2]; 3D7, 120 h, P. falciparum, 120 h, screen at 2 μg/mL, replicate 1, read-out: Pf_120h_%Growth_Rep1): 5.53%; activity at 2 µg/mL ([2]; 3D7, 120 h, P. falciparum, 120 h, screen at 2 μg/mL, replicate 2, read-out: Pf_120h_%Growth_Rep2): 2.87%; activity at 2 µg/mL ([3]; 3D7, 72 h, P. falciparum, 72 h, screen at 2 μg/mL, replicate 1, read-out: Pf_72h_%Growth_Rep1): 4.33%; activity at 2 µg/mL ([3]; 3D7, 72 h, P. falciparum, 72 h, screen at 2 μg/mL, replicate 2, read-out: Pf_72h_%Growth_Rep2): -0.69%

Question: What does the source list for `Cc1cc(OC(=O)c2c(C)cc(O)cc2O)cc(O)c1C(=O)O` [BIA-L1669]?
Answer: Tg_72h_%Growth_Rep1 [1, 4]: 166.09%; Tg_72h_%Growth_Rep2 [1, 5]: 102.01%; Pf_120h_%Growth_Rep1 [2, 6]: 65.54%; Pf_120h_%Growth_Rep2 [2, 7]: 115.03%; Pf_72h_%Growth_Rep1 [3, 8]: 74.56%; Pf_72h_%Growth_Rep2 [3, 9]: 54.17%

Question: With `CC(C)C[C@H]1C(=O)O[C@H](C(C)C)C(=O)N(C)[C@@H](CC(C)C)C(=O)O[C@H](C(C)C)C(=O)N(C)[C@@H](CC(C)C)C(=O)O[C@H](C(C)C)C(=O)N(C)[C@@H](CC(C)C)C(=O)O[C@H](C(C)C)C(=O)N1C` [Bassianolide] as the compound, how does the Tg_72h_%Growth_Rep1 ([1]; library screen at 2 μg/mL, % growth, replicate 1) read?
Answer: The Tg_72h_%Growth_Rep1 was 78.43%.

Question: And the Tg_72h_%Growth_Rep2 ([1]; library screen at 2 μg/mL, % growth, replicate 2)?
Answer: The Tg_72h_%Growth_Rep2 was 93.64%.

Question: What about the Pf_120h_%Growth_Rep1 ([2]; library screen at 2 μg/mL, 120 h, % growth, replicate 1) of the same compound?
Answer: Its Pf_120h_%Growth_Rep1 is 10.85%.

Question: And the Pf_120h_%Growth_Rep2 ([2]; library screen at 2 μg/mL, 120 h, % growth, replicate 2)?
Answer: Its Pf_120h_%Growth_Rep2 is -3.01%.

Question: What about the Pf_72h_%Growth_Rep1 ([3]; library screen at 2 μg/mL, 72 h, % growth, replicate 1) of the same compound?
Answer: The Pf_72h_%Growth_Rep1 was 6.97%.

Question: And the Pf_72h_%Growth_Rep2 ([3]; library screen at 2 μg/mL, 72 h, % growth, replicate 2)?
Answer: Its Pf_72h_%Growth_Rep2 is 5.23%.

Question: Which percent parasite growth at 2 µg/mL ([1]; T. gondii, parasite screen 2 μg/mL, % growth, replicate 1, read-out: Tg_72h_%Growth_Rep1) does the source give for `CC1(C)CCC[C@]2(C)[C@@H](C=O)C(C=O)=CC[C@@H]12` [Polygodial] here?
Answer: Its percent parasite growth at 2 µg/mL is 101%.

Question: What about the percent parasite growth at 2 µg/mL ([1]; T. gondii, parasite screen 2 μg/mL, % growth, replicate 2, read-out: Tg_72h_%Growth_Rep2) of the same compound?
Answer: Its percent parasite growth at 2 µg/mL is 101%.

Question: What about the activity at 2 µg/mL ([2]; 3D7, P. falciparum, 120 h, parasite screen 2 μg/mL, % growth, replicate 1, read-out: Pf_120h_%Growth_Rep1) of the same compound?
Answer: The activity at 2 µg/mL was 6.02%.

Question: What about the activity at 2 µg/mL ([2]; 3D7, P. falciparum, 120 h, parasite screen 2 μg/mL, % growth, replicate 2, read-out: Pf_120h_%Growth_Rep2) of the same compound?
Answer: Its activity at 2 µg/mL is 28.5%.

Question: And the activity at 2 µg/mL ([3]; 3D7, P. falciparum, 72 h, parasite screen 2 μg/mL, % growth, replicate 1, read-out: Pf_72h_%Growth_Rep1)?
Answer: Its activity at 2 µg/mL is 1.12%.

Question: And the activity at 2 µg/mL ([3]; 3D7, P. falciparum, 72 h, parasite screen 2 μg/mL, % growth, replicate 2, read-out: Pf_72h_%Growth_Rep2)?
Answer: The activity at 2 µg/mL was -3.71%.

Question: What does the source list for `O=C(O)CCC(=O)OC[C@@H](NC(=O)C(Cl)Cl)[C@H](O)c1ccc([N+](=O)[O-])cc1` [Chloramphenicol succinate]?
Answer: percent parasite growth at 2 µg/mL ([1]; read-out: Tg_72h_%Growth_Rep1): 79.4%; percent parasite growth at 2 µg/mL ([1]; read-out: Tg_72h_%Growth_Rep2): 97.4%; activity at 2 µg/mL ([2]; 3D7, P. falciparum, 120 h, screen at 2 μg/mL, replicate 1, read-out: Pf_120h_%Growth_Rep1): 150%; activity at 2 µg/mL ([2]; 3D7, P. falciparum, 120 h, screen at 2 μg/mL, replicate 2, read-out: Pf_120h_%Growth_Rep2): 95.2%; activity at 2 µg/mL ([3]; 3D7, P. falciparum, 72 h, screen at 2 μg/mL, replicate 1, read-out: Pf_72h_%Growth_Rep1): 111%; activity at 2 µg/mL ([3]; 3D7, P. falciparum, 72 h, screen at 2 μg/mL, replicate 2, read-out: Pf_72h_%Growth_Rep2): 86.6%

Question: Which percent parasite growth at 2 µg/mL ([1]; library screen at 2 μg/mL, % growth, replicate 1, read-out: Tg_72h_%Growth_Rep1) does the source give for `C/C(=C\c1csc(C)n1)[C@@H]1C[C@@H]2O[C@]2(C)CCC[C@H](C)[C@H](O)[C@@H](C)C(=O)C(C)(C)[C@@H](O)CC(=O)O1` [Epothilone B] here?
Answer: Its percent parasite growth at 2 µg/mL is 5.99%.

Question: And the percent parasite growth at 2 µg/mL ([1]; library screen at 2 μg/mL, % growth, replicate 2, read-out: Tg_72h_%Growth_Rep2)?
Answer: The percent parasite growth at 2 µg/mL was 3.71%.

Question: And the activity at 2 µg/mL ([2]; 3D7, library screen at 2 μg/mL, 120 h, % growth, replicate 1, read-out: Pf_120h_%Growth_Rep1)?
Answer: Its activity at 2 µg/mL is 5.18%.

Question: What about the activity at 2 µg/mL ([2]; 3D7, library screen at 2 μg/mL, 120 h, % growth, replicate 2, read-out: Pf_120h_%Growth_Rep2) of the same compound?
Answer: Its activity at 2 µg/mL is 3.63%.

Question: And the activity at 2 µg/mL ([3]; 3D7, library screen at 2 μg/mL, 72 h, % growth, replicate 1, read-out: Pf_72h_%Growth_Rep1)?
Answer: The activity at 2 µg/mL was 31.4%.

Question: What about the activity at 2 µg/mL ([3]; 3D7, library screen at 2 μg/mL, 72 h, % growth, replicate 2, read-out: Pf_72h_%Growth_Rep2) of the same compound?
Answer: The activity at 2 µg/mL was -0.31%.

Question: `CC1(C)CCCC2(C)c3cnncc3CCC12` (stereo not drawn) [Polygodial pyridazine] was tested. Which Tg_72h_%Growth_Rep1 ([1]; T. gondii, parasite screen 2 μg/mL, % growth, replicate 1) did it give?
Answer: The Tg_72h_%Growth_Rep1 was 119.26%.

Question: And the Tg_72h_%Growth_Rep2 ([1]; T. gondii, parasite screen 2 μg/mL, % growth, replicate 2)?
Answer: The Tg_72h_%Growth_Rep2 was 96.17%.

Question: What about the Pf_120h_%Growth_Rep1 ([2]; P. falciparum, 120 h, parasite screen 2 μg/mL, % growth, replicate 1) of the same compound?
Answer: Its Pf_120h_%Growth_Rep1 is 58.21%.

Question: And the Pf_120h_%Growth_Rep2 ([2]; P. falciparum, 120 h, parasite screen 2 μg/mL, % growth, replicate 2)?
Answer: The Pf_120h_%Growth_Rep2 was 140.85%.

Question: What about the Pf_72h_%Growth_Rep1 ([3]; P. falciparum, 72 h, parasite screen 2 μg/mL, % growth, replicate 1) of the same compound?
Answer: The Pf_72h_%Growth_Rep1 was 71.42%.

Question: And the Pf_72h_%Growth_Rep2 ([3]; P. falciparum, 72 h, parasite screen 2 μg/mL, % growth, replicate 2)?
Answer: Its Pf_72h_%Growth_Rep2 is 85.26%.

Question: What does the source list for `CCCCC(C)C=C(C)C=C(C)C(=O)NC1=CC(O)(C=CC=CC=CC(=O)NC2=C(O)CCC2=O)C2OC2C1=O` (stereo not drawn) [BIA-M1905]?
Answer: Tg_72h_%Growth_Rep1 [1, 4]: 110.20%; Tg_72h_%Growth_Rep2 [1, 5]: 85.96%; Pf_120h_%Growth_Rep1 [2, 6]: 83.56%; Pf_120h_%Growth_Rep2 [2, 7]: 90.34%; Pf_72h_%Growth_Rep1 [3, 8]: 81.84%; Pf_72h_%Growth_Rep2 [3, 9]: 57.54%
